Assay [1] has as its system MCF7. Nature of the assay: Antiproliferative activity against human MCF7 cells assessed as cell viability at 75 uM after 72 hrs relative to control. The class given is functional. Particulars: MCF7, 72 h.
Assay [2] has as its system MCF7. The assay can be described thus: Antiproliferative activity against human MCF7 cells after 72 hrs. The class given is functional, cell-based.
The subject of a further assay is HeLa. Nature of the assay: Antiproliferative activity against human HeLa cells assessed as cell viability at 75 uM after 72 hrs relative to control. In kind it is functional.
Another assay relates to SK-OV-3. The assay can be described thus: Antiproliferative activity against human SKOV3 cells assessed as cell viability at 75 uM after 72 hrs relative to control. The class given is functional. To be noted: SK-OV-3, 72 h.
A further assay relates to HT-29. The assay can be described thus: Antiproliferative activity against human HT-29 cells assessed as cell viability at 75 uM after 72 hrs relative to control. Particulars: HT-29, 72 h. The class given is functional.

As to `CCOC(=O)C(c1ccc(OC)cc1)C(c1ccc(O)cc1)c1ccc(O)cc1` (stereo not drawn), the inhibition (in general, the relative decrease from the control value, in per cent) at 75 µM in the assay on MCF7 [1] is 75%.

With `CCOC(=O)C(c1cccc(OC)c1)C(c1ccc(O)cc1)c1ccc(O)cc1` (stereo not drawn), the IC50 (in general, the concentration that gives 50% inhibition) in the assay with MCF7 [2] (Homo sapiens, MCF7, 72 h) was determined as 85.1 µM. In addition, the inhibition at 75 µM with MCF7 [1], in the assay on HeLa, in the assay on SK-OV-3 and in the assay with HT-29 was 80% throughout.

Molecule `CCOC(=O)C(c1ccc(C)cc1)C(c1ccc(O)cc1)c1ccc(O)cc1` (stereo not drawn) yielded an IC50 in the assay on MCF7 [2] (Homo sapiens, MCF7, 72 h) of 78.7 µM. Moreover, the inhibition at 75 µM in the assay with MCF7 [1], in the assay with HeLa, in the assay on SK-OV-3 and in the assay on HT-29 was 80% throughout.

In the case of `CCOC(=O)C(c1ccccc1)C(c1ccc(O)cc1)c1ccc(O)cc1` (stereo not drawn), the half-inhibitory concentration (IC50) in the assay with MCF7 [2] (Homo sapiens, MCF7, 72 h) is 80.6 µM. For the same molecule, the inhibition at 75 µM in the assay on MCF7 [1], in the assay with HeLa, in the assay on SK-OV-3 and in the assay on HT-29 was 80% each time.

In the case of `CCOC(=O)C(c1ccc(O)c(OC)c1)C(c1ccc(O)cc1)c1ccc(O)cc1` (stereo not drawn), in the assay with MCF7 [1], the inhibition at 75 µM was found to be 75%.

For the molecule `OCC(c1ccccc1)C(c1ccc(O)cc1)c1ccc(O)cc1` (stereo not drawn), the inhibition at 75 µM in the assay on MCF7 [1], in the assay with HeLa, in the assay with SK-OV-3 and in the assay with HT-29 was 80% in each case.

As for `COc1cc(C(CO)C(c2ccc(O)c(OC)c2)c2ccc(O)c(OC)c2)ccc1O` (stereo in doubt), the IC50 with MCF7 [2] (Homo sapiens, MCF7, 72 h) was 104 µM.

In the assay with MCF7 [2] (mcf7), `COc1cc(C(CO)C(c2ccc(O)c(OC)c2)c2ccc(O)c(OC)c2)ccc1O` (stereo in doubt; 9a) returned an IC50 of 103 µM.
